{"source": "patent US7553928B2", "about": "“Use of des-Aspartate-angiotensin I as an agent for the treatment and prevention of glomerulosclerosis and renal failure” (priority 2000, dated 2009)", "key": {"normal rats": {"system": "normal rats", "assay": "Urine protein excretion in normal rats", "assay_type": "in vivo, Sprague Dawley rats", "from_the_text": "Data were expressed as mean±SEM. […] The accepted level of significance was p<0.05."}, "⅚ nephrectomized rats": {"system": "⅚ nephrectomized rats", "assay": "Urine protein excretion in five-sixths nephrectomized (ablation proteinuric) rats", "assay_type": "in vivo, Sprague Dawley rats", "conditions": "for 24-hour urinary excretion of protein, Weeks 9-16: 762 nmoles/kg/day orally for 8 weeks (weeks 9-16 post nephrectomy); for 24-hour urinary excretion of protein, Weeks 9-16 / 24-hour urinary excretion of protein, Weeks 1-8: mean ± SEM; for 24-hour urinary excretion of protein, Weeks 1-8: treatment group in weeks 1-8 post nephrectomy, before treatment started (baseline)", "procedure": "nephrectomy was carried out as described by Morrison (11). Briefly, each animal was anaesthetized with 7% w/v chloral hydrate (0.4 g/kg, i.p.). An incision was made in the ventral abdominal wall to access the kidneys. Right nephrectomy was performed and the cranial and caudal third of the left kidney were cut off. Tissue adhesive (Histoccryl, B. Braun) was used to seal the cut ends of the left kidney and prevent bleeding. In this way 5⁄6 of the renal parenchyma was removed. This model results in focal and segmental glomerulosclerosis, resembling renal lesions in humans like oligomeganephronia, membranous nephropathy, minimal change nephritis, proliferative glomerulonephritis, analgesic nephropathy, diabetes mellitus, unilateral nephrectomy, cortical necrosis, and unilateral renal agenesis (9). Following the operation, each animal was placed in a metabolic cage for 24 hours once a week for a duration of 8 weeks. The 24-hour urine output and the concentration of protein in the urine were measured. After the 8th week, the animals were randomly divided into two groups (8 animals per group). Animals in one of the group (the treatment group) were orally administered 762 nmoles/kg/day of des-Asp-angiotensin I dissolved in 0.5 ml of saline via a 1-ml syringe with a blunted needle for a period of 8 weeks. The dose of 762 nmoles/kg/day was calculated based on the maximum effective oral anti-cardiac hypertrophic dose (250 nmole per rat of average weight of 328 g) in the original parent patent. Animals in the other group (the control group) were similarly administered with 0.5 ml of saline. Weekly measurement of 24-hour urine output and the concentration of protein in the urine in these animals were carried out for another 8 weeks. The protocol was designed based on our preliminary observation that urinary excretion of protein in the 5⁄6 nephrectomized rats commenced to increase above the normal value in 7th to 8th week post nephrectomy. A repeat of the experiment with 12 nephrectomized rats per group was carried out. Data were expressed as mean±SEM. […] The accepted level of significance was p<0.05."}}, "data": [{"substance": "des-Aspartate angiotensin I [des-Asp-angiotensin I]", "values": [{"measurement": "24-hour urinary excretion of protein, Weeks 1-8", "setting": "normal rats; Table 4, normal rats, treatment group (762 nmoles/kg/day), 12 rats, mean ± SEM, saline control 18.7 ± 1.8", "result": "16.1 ± 1.7", "unit": "mg"}, {"measurement": "24-hour urinary excretion of protein, Weeks 9-16", "setting": "normal rats; Table 4, normal rats, treatment group (762 nmoles/kg/day), 12 rats, mean ± SEM, saline control 19.9 ± 2.2", "result": "17.8 ± 1.1", "unit": "mg"}, {"measurement": "Effect on urinary excretion of protein in normal rats", "setting": "normal rats; normal rats, oral dose of 762 nmoles/kg/day", "result": "no effect"}, {"measurement": "24-hour urinary excretion of protein, Weeks 9-16", "setting": "⅚ nephrectomized rats; Table 2, first experiment, 8 rats, saline control 37.2 ± 2.3, p = 0.024", "result": "*28.7 ± 2.5 mg"}, {"measurement": "24-hour urinary excretion of protein, Weeks 1-8", "setting": "⅚ nephrectomized rats; Table 2, first experiment, 8 rats", "result": "16.4 ± 1.6", "unit": "mg"}, {"measurement": "24-hour urinary excretion of protein, Weeks 9-16", "setting": "⅚ nephrectomized rats; Table 3, repeat experiment, 12 rats, saline control 51.7 ± 4.7, p = 0.048", "result": "*39.6 ± 3.3 mg"}, {"measurement": "24-hour urinary excretion of protein, Weeks 1-8", "setting": "⅚ nephrectomized rats; Table 3, repeat experiment, 12 rats", "result": "19.9 ± 1.5", "unit": "mg"}, {"measurement": "Anti-proteinuric action (progressive development of proteinuria)", "setting": "⅚ nephrectomized rats; ablation nephropathic rats, oral dose of 762 nmoles/kg/day", "result": "effective agent in attenuating the progressive development of proteinuria"}]}]}
